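48-hour exposure; five concentrations; linearly interpolated endpoints. GI50 is the concentration that inhibits growth by half. TGI denotes the concentration required for complete inhibition of growth.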
What was measured:
Assay in all cases: NCI-60 cell line screen, 48 h
LOX IMVI melanoma = system: LOX IMVI melanoma
MCF7 breast = system: MCF7 breast
HOP-92 NSCLC = system: HOP-92 NSCLC
HCT-116 colon = system: HCT-116 colon
CCRF-CEM leukemia = system: CCRF-CEM leukemia
DU-145 prostate = system: DU-145 prostate
HCT-15 colon = system: HCT-15 colon
IGROV1 ovarian = system: IGROV1 ovarian
NCI/ADR-RES ovarian = system: NCI/ADR-RES ovarian
SF-295 CNS = system: SF-295 CNS
KM12 colon = system: KM12 colon
SF-268 CNS = system: SF-268 CNS
ACHN renal = system: ACHN renal
TK-10 renal = system: TK-10 renal
SN12C renal = system: SN12C renal
SF-539 CNS = system: SF-539 CNS
HOP-62 NSCLC = system: HOP-62 NSCLC
A549 NSCLC = system: A549 NSCLC
MOLT-4 leukemia = system: MOLT-4 leukemia
OVCAR-8 ovarian = system: OVCAR-8 ovarian
HL-60(TB) leukemia = system: HL-60(TB) leukemia
CAKI-1 renal = system: CAKI-1 renal
HS 578T breast = system: HS 578T breast
SK-MEL-5 melanoma = system: SK-MEL-5 melanoma
SK-MEL-2 melanoma = system: SK-MEL-2 melanoma
HCC-2998 colon = system: HCC-2998 colon
RPMI-8226 leukemia = system: RPMI-8226 leukemia
OVCAR-4 ovarian = system: OVCAR-4 ovarian
PC-3 prostate = system: PC-3 prostate
SNB-19 CNS = system: SNB-19 CNS

## Cc1cc2nc3c4ccccc4n(CCCN(C)C)c3nc2cc1C
LOX IMVI melanoma
  GI50: 1.35 µM
  TGI: 2.87 µM
MCF7 breast
  GI50: 1.95 µM
  TGI: 4.88 µM
HOP-92 NSCLC
  GI50: 1.89 µM
  TGI: 9.4 µM
HCT-116 colon
  GI50: 1.77 µM
  TGI: 9 µM
CCRF-CEM leukemia
  GI50: 3.05 µM
  TGI: 11.7 µM
DU-145 prostate
  GI50: 3.16 µM
  TGI: 9.57 µM
HCT-15 colon
  GI50: 1.8 µM
  TGI: 3.56 µM
IGROV1 ovarian
  GI50: 1.76 µM
  TGI: 4.11 µM
NCI/ADR-RES ovarian
  GI50: 1.41 µM
  TGI: 3.57 µM
SF-295 CNS
  GI50: 2.29 µM
  TGI: 8.79 µM
KM12 colon
  GI50: 3.31 µM
  TGI: 11.3 µM
SF-268 CNS
  GI50: 2.95 µM
  TGI: 10.1 µM
ACHN renal
  GI50: 1.73 µM
  TGI: 4.91 µM
TK-10 renal
  GI50: 2.58 µM
  TGI: 8.64 µM
SN12C renal
  GI50: 2.33 µM
  TGI: 10.1 µM
SF-539 CNS
  GI50: 2.16 µM
  TGI: 5.51 µM
HOP-62 NSCLC
  GI50: 1.57 µM
  TGI: 5 µM
A549 NSCLC
  GI50: 1.5 µM
  TGI: 4.04 µM
MOLT-4 leukemia
  GI50: 1.94 µM
  TGI: 6.41 µM
OVCAR-8 ovarian
  GI50: 1.32 µM
  TGI: 4.08 µM
HL-60(TB) leukemia
  GI50: 2.19 µM
  TGI: 5.43 µM
CAKI-1 renal
  GI50: 2.08 µM
  TGI: 7.36 µM
HS 578T breast
  GI50: 2.95 µM
  TGI: 14.8 µM
SK-MEL-5 melanoma
  GI50: 2.21 µM
  TGI: 5.12 µM
SK-MEL-2 melanoma
  GI50: 1.68 µM
  TGI: 3.21 µM
HCC-2998 colon
  GI50: 1.74 µM
  TGI: 3.83 µM
RPMI-8226 leukemia
  GI50: 2.65 µM
  TGI: 13.1 µM
OVCAR-4 ovarian
  GI50: 2.65 µM
  TGI: 8.11 µM
PC-3 prostate
  GI50: 2.71 µM
  TGI: 17.3 µM
SNB-19 CNS
  GI50: 2.99 µM

From PubChem BioAssay (NCI)
